# ChEMBL document CHEMBL3745644, “The synthesis and BK channel-opening activity of N-acylaminoalkyloxime derivatives of dehydroabietic acid” (Bioorg Med Chem Lett, 2016)
# Biological target: Calcium-activated potassium channel subunit alpha-1 (Homo sapiens) (UniProt Q12791)
# Experiment: Induction of step pulse-induced human BKalpha channel opening activity expressed in CHO-K1 cells at 30 uM by population patch clamp method relative to control
# Assay type: cell-based
# Sequence of Calcium-activated potassium channel subunit alpha-1 (Homo sapiens) (Q12791 whole entry): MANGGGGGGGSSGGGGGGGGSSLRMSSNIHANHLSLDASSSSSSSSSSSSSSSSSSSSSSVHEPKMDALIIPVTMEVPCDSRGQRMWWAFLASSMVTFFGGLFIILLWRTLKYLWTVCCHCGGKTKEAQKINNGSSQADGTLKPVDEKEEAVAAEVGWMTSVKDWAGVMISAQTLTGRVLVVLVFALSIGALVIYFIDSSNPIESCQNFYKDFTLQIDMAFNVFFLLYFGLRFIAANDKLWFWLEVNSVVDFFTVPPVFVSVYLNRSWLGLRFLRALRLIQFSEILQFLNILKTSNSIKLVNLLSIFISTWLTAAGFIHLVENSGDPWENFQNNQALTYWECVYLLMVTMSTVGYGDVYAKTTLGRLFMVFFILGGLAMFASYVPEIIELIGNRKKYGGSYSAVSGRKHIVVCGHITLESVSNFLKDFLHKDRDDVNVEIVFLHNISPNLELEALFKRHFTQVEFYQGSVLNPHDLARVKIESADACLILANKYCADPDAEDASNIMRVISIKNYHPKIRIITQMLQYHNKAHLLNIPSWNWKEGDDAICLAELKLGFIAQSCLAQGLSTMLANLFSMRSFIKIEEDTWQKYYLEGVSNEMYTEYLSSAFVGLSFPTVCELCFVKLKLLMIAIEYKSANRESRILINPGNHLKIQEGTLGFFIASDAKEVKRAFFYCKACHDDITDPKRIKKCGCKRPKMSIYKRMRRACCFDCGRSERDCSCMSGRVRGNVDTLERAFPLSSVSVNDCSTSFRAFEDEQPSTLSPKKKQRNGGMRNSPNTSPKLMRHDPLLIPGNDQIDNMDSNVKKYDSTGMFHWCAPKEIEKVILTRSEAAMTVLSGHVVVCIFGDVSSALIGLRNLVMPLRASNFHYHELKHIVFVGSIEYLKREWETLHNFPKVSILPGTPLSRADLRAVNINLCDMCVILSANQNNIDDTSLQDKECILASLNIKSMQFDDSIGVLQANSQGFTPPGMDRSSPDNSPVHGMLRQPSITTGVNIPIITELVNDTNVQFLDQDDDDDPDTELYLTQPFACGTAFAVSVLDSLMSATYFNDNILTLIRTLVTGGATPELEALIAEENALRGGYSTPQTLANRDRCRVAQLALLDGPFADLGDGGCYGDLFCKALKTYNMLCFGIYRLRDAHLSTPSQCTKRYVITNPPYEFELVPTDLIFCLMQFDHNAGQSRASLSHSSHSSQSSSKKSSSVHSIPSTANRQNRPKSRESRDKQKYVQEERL
row,SMILES,Activity
1,CC(=O)NCCO/N=C1\C[C@H]2[C@](C)(C(=O)O)CCC[C@]2(C)c2cc(Br)c(C(C)C)cc21,140%
2,CC(C)c1cc2c(cc1Br)[C@@]1(C)CCC[C@@](C)(C(=O)O)[C@@H]1C/C2=N\OCCNC(=O)c1ccco1,151%
3,CC(C)c1cc2c(cc1Br)[C@@]1(C)CCC[C@@](C)(C(=O)O)[C@@H]1C/C2=N\OCCNC(=O)c1ccc[nH]1,124%
4,CCc1ccc(C(=O)NCCO/N=C2\C[C@H]3[C@](C)(C(=O)O)CCC[C@]3(C)c3cc(Br)c(C(C)C)cc32)cc1,68%
5,COc1ccc(C(=O)NCCO/N=C2\C[C@H]3[C@](C)(C(=O)O)CCC[C@]3(C)c3cc(Br)c(C(C)C)cc32)cc1,102%
6,CC(C)c1cc2c(cc1Br)[C@@]1(C)CCC[C@@](C)(C(=O)O)[C@@H]1C/C2=N\OCCNC(=O)c1cccc(C(F)(F)F)c1,113%
7,CC(C)C(=O)NCCO/N=C1\C[C@H]2[C@](C)(C(=O)O)CCC[C@]2(C)c2cc(Br)c(C(C)C)cc21,142%
8,CC(C)c1cc2c(cc1Br)[C@@]1(C)CCC[C@@](C)(C(=O)O)[C@@H]1C/C2=N\OCCCNC(=O)c1cccs1,136%
9,CC(C)c1cc2c(cc1Br)[C@@]1(C)CCC[C@@](C)(C(=O)O)[C@@H]1C/C2=N\OCCNC(=O)c1nccs1,204%
10,CC(C)c1cc2c(cc1Br)[C@@]1(C)CCC[C@@](C)(C(=O)O)[C@@H]1C/C2=N\OCCNC(=O)c1ccccc1,121%
11,CC(C)c1cc2c(cc1Br)[C@@]1(C)CCC[C@@](C)(C(=O)O)[C@@H]1C/C2=N\OCCNC(=O)C1CC1,149%
12,CC(C)c1cc2c(cc1Br)[C@@]1(C)CCC[C@@](C)(C(=O)O)[C@@H]1C/C2=N\OCCNC(=O)c1ccccc1F,118%
13,CC(C)c1cc2c(cc1Br)[C@@]1(C)CCC[C@@](C)(C(=O)O)[C@@H]1C/C2=N\OCCNC(=O)c1cc(Br)cs1,106%
14,CC(C)c1cc2c(cc1Br)[C@@]1(C)CCC[C@@](C)(C(=O)O)[C@@H]1C/C2=N\OCCNC(=O)c1ccc(Br)s1,107%
15,CC(C)c1cc2c(cc1Br)[C@@]1(C)CCC[C@@](C)(C(=O)O)[C@@H]1C/C2=N\OCCNC(=O)c1c(F)c(F)c(F)c(F)c1F,136%
16,CCCCCC(=O)NCCO/N=C1\C[C@H]2[C@](C)(C(=O)O)CCC[C@]2(C)c2cc(Br)c(C(C)C)cc21,146%
17,CC(C)c1cc2c(cc1Br)[C@@]1(C)CCC[C@@](C)(C(=O)O)[C@@H]1C/C2=N\OCCNC(=O)c1cc2ccccc2s1,85.7%
18,CC(C)c1cc2c(cc1Br)[C@@]1(C)CCC[C@@](C)(C(=O)O)[C@@H]1C/C2=N\OCCNC(=O)c1ccc(Cl)s1,103%
19,CC(C)c1cc2c(cc1Br)[C@@]1(C)CCC[C@@](C)(C(=O)O)[C@@H]1C/C2=N\OCCNC(=O)c1ccc(C(F)(F)F)cc1,107%
20,CC(C)c1cc2c(cc1Br)[C@@]1(C)CCC[C@@](C)(C(=O)O)[C@@H]1C/C2=N\OCCCCCNC(=O)c1cccs1,104%
21,CC(C)c1cc2c(cc1Br)[C@@]1(C)CCC[C@@](C)(C(=O)O)[C@@H]1C/C2=N\OCCN,98.6%
22,COc1ccccc1C(=O)NCCO/N=C1\C[C@H]2[C@](C)(C(=O)O)CCC[C@]2(C)c2cc(Br)c(C(C)C)cc21,101%

# Now from value to molecule:
row,Activity,SMILES
1,108%,CC(C)c1cc2c(cc1Br)[C@@]1(C)CCC[C@@](C)(C(=O)O)[C@@H]1C/C2=N\OCCNC(=O)c1ccccn1
2,90.4%,COc1cccc(C(=O)NCCO/N=C2\C[C@H]3[C@](C)(C(=O)O)CCC[C@]3(C)c3cc(Br)c(C(C)C)cc32)c1
3,89%,CC(C)c1cc2c(cc1Br)[C@@]1(C)CCC[C@@](C)(C(=O)O)[C@@H]1C/C2=N\OCCNC(=O)c1cc2ccccc2[nH]1
4,97.2%,CC(C)c1cc2c(cc1Br)[C@@]1(C)CCC[C@@](C)(C(=O)O)[C@@H]1C/C2=N\OCCCCCCNC(=O)c1cccs1
5,123%,CC(C)c1cc2c(cc1Br)[C@@]1(C)CCC[C@@](C)(C(=O)O)[C@@H]1C/C2=N\OCCNC(=O)c1ccccc1C(F)(F)F
6,128%,CC(C)c1cc2c(cc1Br)[C@@]1(C)CCC[C@@](C)(C(=O)O)[C@@H]1C/C2=N\OCCNC(=O)c1ccsc1
7,106%,CC(C)c1ccc2c(c1)/C(=N/OCCNC(=O)c1cccs1)C[C@H]1[C@](C)(C(=O)O)CCC[C@]21C
8,101%,Cc1ccc(C(=O)NCCO/N=C2\C[C@H]3[C@](C)(C(=O)O)CCC[C@]3(C)c3cc(Br)c(C(C)C)cc32)s1
9,267%,CC(C)c1cc2c(cc1Br)[C@@]1(C)CCC[C@@](C)(C(=O)O)[C@@H]1C/C2=N\OCCNC(=O)c1cccs1
10,268%,O=c1[nH]c2cc(C(F)(F)F)ccc2n1-c1cc(C(F)(F)F)ccc1O
